Tests used:
[1] = system: EGF-stimulated bone marrow cells; test: MTT assay, proliferation of EGF-stimulated bone marrow cells; format: cell-based, mouse; conditions: positive control, 50 ng/ml EGF
Protocol: Under sterile condition, C57BL/6j (male, 15-20 g, 4-6 weeks old) were sacrificed, and their femoral bones were injected with DMEM/F12 culture medium (Gibco, N.Y. USA) so as to flush out the bone marrow cells. The collected cells in DMEM/F12 culture medium were then filtered through a sterile No. 53 nylon mesh so as to obtain a single cell suspension, the cell concentration of which was subsequently adjusted to 6×10^5 cells/ml with DMEM/F12 culture medium containing N2 supplement (Sigma, Mo., USA).
The mouse bone marrow cells (1.5×10^5 nucleated cells/well) as prepared in the above Procedure (I) were placed into 96-well culture plates and incubated in 200 μl of a defined medium (DMEM/F12 plus N2 supplement) supplemented with EGF (at a final concentration of 10 ng/ml). After incubation at 37° C. for 24 hrs, different concentrations (0.01 μg/ml, […], 1 μg/ml, 10 μg/ml and 100 μg/ml) of the extracts of Polygonum multiflorum Thunb. root obtained in Example 1 were added into the wells of the culture plates, respectively. […]
Subsequently, MTT assay was performed. […] The culture plates were allowed to stand for 14 hours and then subjected to absorbance detection using a microplate reader at O.D. 550 nm-O.D. 690 nm. […] The obtained experimental data were analyzed by Student's t-test.

[2] = system: dexamethasone-stimulated mouse primary bone marrow cell cultures; test: Alkaline phosphatase colorimetry, dexamethasone-stimulated osteogenic cell maturation (test A); format: cell-based; conditions: positive control, 0.1 nM estrogen
Protocol: Under sterile condition, C57BL/6j (male, 15-20 g, 4-6 weeks old) were sacrificed, and their femoral bones were injected with alpha-minimal essential medium (α-MEM) culture medium (Gibco, N.Y., USA) so as to flush out the bone marrow cells. The collected cells in α-MEM culture medium were then filtered through a sterile No. 53 nylon mesh so as to obtain a single cell suspension.
The mouse bone marrow cells (1.5×10^5 nucleated cells/well) as prepared in the above Procedure (I) were placed into 96-well culture plates and incubated in α-MEM supplemented with 15% FCS, 10 μM dexamethazone, 50 μg/ml ascorbic acid, and 10 mM sodium, β-glycerophosphate. After incubation at 37° C. for 48 hrs, extracts of Polygonum multiflorum Thunb. root with different concentrations (0.01 μg/ml, 0.1 μg/ml, 1 μg/ml, 10 μg/ml, 100 μg/ml and 1000 μg/ml) were added into the wells of the culture plates, respectively. […]
The alkaline phosphatase (AP) colorimetry (Aubin, J. E. et al. (1995), Bone, 17: 77S-83S; Sabokbar, A. et al. (1994), Bone & Mineral, 27: 57-67) was conducted as follows: The culture medium in each well of the culture plates was removed, and the remaining cells were added with 120 μl of 0.01% SDS and incubated in a 37° C. incubator for 10 minutes. […] After a reaction time of 10-15 minutes at 37° C., the culture plates were subjected to absorbance detection at O.D. 405 nm.

[3] = system: mGM-CSF-stimulated mouse primary bone marrow cultures; test: MTT assay, mGM-CSF-stimulated proliferation of bone marrow cultures; format: cell-based; conditions: positive control, mGM-CSF 20 ng/ml
Protocol: Subsequently, MTT assay was performed. Each well of the culture plates was added with a MTT solution (5 mg/ml dissolved in 1×PBS) to a final concentration of 1 mg/ml. Four hours later, each well of the culture plates was added with a MTT lysis buffer (20% sodium dodecyl sulfate (SDS) in 50% dimethylformamide (DMF)/50% H2O) in an amount of 150 μl/well. The culture plates were allowed to stand for 14 hours and then subjected to absorbance detection using a microplate reader at O.D. 550 nm-O.D. 690 nm. Each experiment was conducted in duplicate, and n=6 wells for each group. The obtained experimental data were analyzed by Student's t-test.
The mouse bone marrow cells (1.5×10^5 nucleated cells/well) prepared according to the procedures set forth in Procedure (I) of Example 5 were placed into 96-well culture plates and incubated in RPMI supplemented with 5% FCS and mGM-CSF (at a final concentration of 2 ng/ml). After incubation at 37° C. for 24 hrs, extracts of the Polygonum multiflorum Thunb. root with different concentrations (0.1 μg/ml, 1 μg/ml, 10 μg/ml and 100 μg/ml) were added into the wells of the culture plates, respectively. The positive control group was treated with 20 ng/ml mGM-CSF, and the negative control group was treated with 2 ng/ml mGM-CSF. […]

EGF: epidermal growth factor, 50 ng/ml positive control
Proliferation index [1]: 1.26 (±0.13)

estrogen
AP activity index [2]: 1.28

B1: mGM-CSF: granulocyte-monocyte colony stimulating factor, 20 ng/ml positive control (protein, UniProt P01587 18-141, looked up)
Granulocyte-macrophage …: APTRSPITVTRPWKHVEAIKEALNLLDDMPVTLNEEVEVVSNEFSFKKLTCVQTRLKIFEQGLRGNFTKLKGALNMTASYYQTYCPPTPETDCETQVTTYADFIDSLKTFLTDIPFECKKPGQK
Proliferation index [3]: 2.05

Reference: US8168236B2, “Extracts of Polygonum multiflorum thunb., and preparation process and uses of the same” (National Yang-Ming University, priority 2003, dated 2012)
